Results: US20230263742A1, “A LIPID” (Stemirna Therapeutics Co., Ltd., priority 2021, published 2023)

Tests used:
[1] = Particle size, PDI and zeta potential by dynamic light scattering; type: physicochemical; conditions: for PDI / Zeta potential: Luc mRNA-LNP 50:10:38.5:1.5; for Size: Luc mRNA-LNP, lipid:phospholipid:cholesterol:PEG-DMG 50:10:38.5:1.5
Method: A Zetasizer Nano ZS (Malvern Instruments Ltd, Malvern, Worcestershire, UK) can be used to determine the particle size, the polydispersity index (PDI) and the zeta (ζ) potential of the nanoparticle compositions in 1×PBS in determining particle size and 15 mM PBS in determining zeta (ζ) potential.
The evaluation method of particle size and zeta potential: 50 μL LNP sample was diluted with 950 μL purified water to obtain the diluted LNP sample. The sample was placed in a dynamic light scattering laser particle size analyzer (Malvern, ZS-90) for testing.

[2] = tested on: cells; assay: Cytotoxicity, CCK-8 cell viability; type: cell-based; conditions: 200 ng LNP, 24 h, CCK-8, vs cells blank
Method: Evaluation method of cytotoxicity: 200 ng of LNP samples were mixed with cells and incubated for 24 h, then the viability was detected using CCK-8 cell viability detection kit. 10 μl of CCK-8 detection reagent was added to the transfected cells and the OD value was detected using a microplate reader at a detection wavelength of 450 nm. The cell viability percentage is obtained by comparing the OD value with that of the cells blank.

[3] = tested on: C2C12 cells; assay: In vitro cell Luc expression, C2C12; type: cell-based; conditions: 100 ng Luc mRNA-LNP, 24 h
Method: (§1) In vitro cell expression evaluation method: C2C12 cells, HepG2 cells, A20 cells were cultured, and 100,000 cells per well were plated on a 96-well plate. 100 ng of LNP samples were mixed with the cells and incubated for 24 hours (n=3), and then the expression was detected using luciferase quantitative kit 24 h after administration.

[4] = tested on: HepG2 cells; assay: In vitro cell Luc expression, HepG2; type: cell-based; conditions: 100 ng Luc mRNA-LNP, 24 h
Method: as §1

[5] = tested on: A20 cells; assay: In vitro cell Luc expression, A20; type: cell-based; conditions: 100 ng Luc mRNA-LNP, 24 h
Method: as §1

[6] = tested on: Balb/C mice; assay: In vivo Luc expression after tail vein injection of Luc mRNA-LNP; conditions: 5 μg Luc mRNA-LNP tail vein, 6 hours
Method: In vivo expression evaluation method: 5 μg Luc (luciferase) mRNA-LNP solution of SW-II-118, SW-120, or SW-121 were injected into the tail vein of Balb/C mice. 6 hours after the administration, the mice are injected 0.15 mg/kg of […] substrate intraperitoneally. Within 15 minutes after the injection of the substrate, the fluorescence signal intensity was tested under a small animal in vivo imaging instrument.

[7] = tested on: Balb/C mice; assay: Luc expression in injection site and liver site after intramuscular administration (Example 5); type: in vivo; conditions: 5 μg Luc mRNA-LNP (DSPC) intramuscularly, Balb/C mice n=3, 6 h
Method: Further bioluminescence studies were performed to investigate the delivery efficiency of nanoparticle compositions including various lipid compounds according to the present invention. The formulations containing reference cationic lipid M62, M63, M118, and M119 (corresponding to Compound 62, 63, 118, and 119 in PCT/US2018/022717 (WO2018/170306), respectively) were evaluated for comparison. Nanoparticle compositions including DSPC as an optimized phospholipid, cholesterol as a structural lipid, PEG-DMG as a PEG lipid, an RNA, and a compound above mentioned were prepared according to or via methods similar to those described in Examples 1 and 2. The ratios of the lipids were 50:10:38.5:1.5 mol % for the lipid of the present invention: DSPC: cholesterol: PEG-DMG. 5 μg of LNP solution containing luciferase mRNA was administered intramuscularly to Balb/C mice (n=3). 6 hours after administration, mice were injected intraperitoneally with 0.15 mg/kg of D-luciferin substrate. Within 15 minutes after the injection of the substrate, the fluorescence signal intensity in injection site and liver site were tested under a small animal in vivo imaging instrument. Tables 3-4 summarize the fluorescence signal intensity of the nanoparticle compositions including present invention lipids and the reference compounds in injection site and liver site.

**Q.** For `CCCCCCCCC(CCCCCCCC)OC(=O)CCCCCCCN(CCO)CCCCCCCC(=O)OCCc1ccc(CCCCCCC)cc1` [SW-II-121], which PDI ([1]; phospholipid DAPC) is on record?
**A.** 0.27 ± 0.01

**Q.** What about the Zeta potential ([1]; phospholipid DAPC) of the same compound?
**A.** −2.21 ± 0.53 mV

**Q.** And the Size ([1]; phospholipid DAPC)?
**A.** 96.3 ± 2.2 nm

**Q.** And the PDI ([1]; phospholipid DMPE)?
**A.** 0.20 ± 0.03

**Q.** What about the Zeta potential ([1]; phospholipid DMPE) of the same compound?
**A.** 0.01 ± 0.35 mV

**Q.** What about the Size ([1]; phospholipid DMPE) of the same compound?
**A.** 139.8 ± 1.1 nm

**Q.** And the PDI ([1]; phospholipid DOPE)?
**A.** 0.17 ± 0.03

**Q.** What about the Zeta potential ([1]; phospholipid DOPE) of the same compound?
**A.** 5.06 ± 0.15 mV

**Q.** And the Size ([1]; phospholipid DOPE)?
**A.** 159.87 ± 3.7 nm

**Q.** What about the PDI ([1]; phospholipid DPPC) of the same compound?
**A.** 0.22 ± 0.02

**Q.** And the Zeta potential ([1]; phospholipid DPPC)?
**A.** −1.23 ± 1.43 mV

**Q.** And the Size ([1]; phospholipid DPPC)?
**A.** 98.7 ± 1.7 nm

**Q.** And the PDI ([1]; phospholipid DPPE)?
**A.** 0.17 ± 0.03

**Q.** What about the Zeta potential ([1]; phospholipid DPPE) of the same compound?
**A.** −0.29 ± 0.31 mV

**Q.** And the Size ([1]; phospholipid DPPE)?
**A.** 98.4 ± 2.7 nm

**Q.** And the PDI ([1]; phospholipid DSPC)?
**A.** 0.22 ± 0.03

**Q.** What about the Zeta potential ([1]; phospholipid DSPC) of the same compound?
**A.** −1.18 ± 1.18 mV

**Q.** What about the Size ([1]; phospholipid DSPC) of the same compound?
**A.** 98.5 ± 1.5 nm

**Q.** And the PDI ([1]; phospholipid DSPE)?
**A.** 0.17 ± 0.03

**Q.** What about the Zeta potential ([1]; phospholipid DSPE) of the same compound?
**A.** −9.60 ± 2.10 mV

**Q.** What about the Size ([1]; phospholipid DSPE) of the same compound?
**A.** 116.3 ± 0.2 nm

**Q.** And the “Viability (%)” value ([2]; phospholipid DAPC)?
**A.** 111.1%

**Q.** What about the “Viability (%)” value ([2]; phospholipid DMPE) of the same compound?
**A.** 108.5%

**Q.** And the “Viability (%)” value ([2]; phospholipid DOPE)?
**A.** 107.5%

**Q.** And the “Viability (%)” value ([2]; phospholipid DPPC)?
**A.** 109.64%

**Q.** And the “Viability (%)” value ([2]; phospholipid DPPE)?
**A.** 108.0%

**Q.** And the “Viability (%)” value ([2]; phospholipid DSPC)?
**A.** 123.3%

**Q.** What about the “Viability (%)” value ([2]; phospholipid DSPE) of the same compound?
**A.** 137.0%

**Q.** And the “C2C12 cell, in vitro expression” value ([3]; phospholipid DAPC)?
**A.** 24183

**Q.** And the “C2C12 cell, in vitro expression” value ([3]; phospholipid DMPE)?
**A.** 219379.5

**Q.** What about the “C2C12 cell, in vitro expression” value ([3]; phospholipid DOPE) of the same compound?
**A.** 1003834.5

**Q.** What about the “C2C12 cell, in vitro expression” value ([3]; phospholipid DPPC) of the same compound?
**A.** 93988

**Q.** What about the “C2C12 cell, in vitro expression” value ([3]; phospholipid DPPE) of the same compound?
**A.** 246921

**Q.** What about the “C2C12 cell, in vitro expression” value ([3]; phospholipid DSPC) of the same compound?
**A.** 93333

**Q.** And the “C2C12 cell, in vitro expression” value ([3]; phospholipid DSPE)?
**A.** 41556.5

**Q.** What about the “HepG2 cell, in vitro expression” value ([4]; phospholipid DAPC) of the same compound?
**A.** 3110

**Q.** What about the “HepG2 cell, in vitro expression” value ([4]; phospholipid DMPE) of the same compound?
**A.** 16466

**Q.** What about the “HepG2 cell, in vitro expression” value ([4]; phospholipid DOPE) of the same compound?
**A.** 42994.5

**Q.** And the “HepG2 cell, in vitro expression” value ([4]; phospholipid DPPC)?
**A.** 16064

**Q.** What about the “HepG2 cell, in vitro expression” value ([4]; phospholipid DPPE) of the same compound?
**A.** 25349.5

**Q.** What about the “HepG2 cell, in vitro expression” value ([4]; phospholipid DSPC) of the same compound?
**A.** 7932

**Q.** And the “HepG2 cell, in vitro expression” value ([4]; phospholipid DSPE)?
**A.** 1211.5

**Q.** What about the “A20 cell, in vitro expression” value ([5]; phospholipid DAPC) of the same compound?
**A.** 1744.5

**Q.** And the “A20 cell, in vitro expression” value ([5]; phospholipid DMPE)?
**A.** 9110.5

**Q.** What about the “A20 cell, in vitro expression” value ([5]; phospholipid DOPE) of the same compound?
**A.** 4244.5

**Q.** And the “A20 cell, in vitro expression” value ([5]; phospholipid DPPC)?
**A.** 9098

**Q.** What about the “A20 cell, in vitro expression” value ([5]; phospholipid DPPE) of the same compound?
**A.** 27832

**Q.** What about the “A20 cell, in vitro expression” value ([5]; phospholipid DSPC) of the same compound?
**A.** 8006.5

**Q.** What about the “A20 cell, in vitro expression” value ([5]; phospholipid DSPE) of the same compound?
**A.** 508.5

**Q.** What about the In vivo expression ([6]; phospholipid DAPC) of the same compound?
**A.** 156336666.7 p/sec/cm^2/sr

**Q.** And the In vivo expression ([6]; phospholipid DMPE)?
**A.** 78216666.7 p/sec/cm^2/sr

**Q.** What about the In vivo expression ([6]; phospholipid DOPE) of the same compound?
**A.** 47516666.7 p/sec/cm^2/sr

**Q.** And the In vivo expression ([6]; phospholipid DPPC)?
**A.** 36323333.3 p/sec/cm^2/sr

**Q.** What about the In vivo expression ([6]; phospholipid DPPE) of the same compound?
**A.** 46183333.3 p/sec/cm^2/sr

**Q.** What about the In vivo expression ([6]; phospholipid DSPC) of the same compound?
**A.** 12494333.3 p/sec/cm^2/sr

**Q.** And the In vivo expression ([6]; phospholipid DSPE)?
**A.** 19344666.7 p/sec/cm^2/sr

**Q.** And the “Luc expression in injection site, I.M. injection site, 6 h (ratio relative to SW-II-134-3 set as 1)” value [7]?
**A.** 1.440

**Q.** And the “Luc expression in liver site, Liver site upon I.M., 6 h (ratio relative to SW-II-137-1 set as 1)” value [7]?
**A.** 2.150
